Experimental data: PubChem BioAssay (NCI)
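Grown in 96-well plates, cells were treated for 48 hours with each compound at five concentrations. Insufficient inhibition: endpoint recorded as highest concentration tested. TGI is the concentration that stops growth completely.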

Key:
Assay in all cases: NCI tumour cell line growth inhibition, 48 h
786-0 renal = tested on: 786-0 renal
A549 NSCLC = tested on: A549 NSCLC
ACHN renal = tested on: ACHN renal
BT-549 breast = tested on: BT-549 breast
CAKI-1 renal = tested on: CAKI-1 renal
CCRF-CEM leukemia = tested on: CCRF-CEM leukemia
COLO 205 colon = tested on: COLO 205 colon
DU-145 prostate = tested on: DU-145 prostate
EKVX NSCLC = tested on: EKVX NSCLC
HCC-2998 colon = tested on: HCC-2998 colon
HCT-116 colon = tested on: HCT-116 colon
HCT-15 colon = tested on: HCT-15 colon
HL-60(TB) leukemia = tested on: HL-60(TB) leukemia
HOP-62 NSCLC = tested on: HOP-62 NSCLC
HOP-92 NSCLC = tested on: HOP-92 NSCLC
HS 578T breast = tested on: HS 578T breast
HT29 colon = tested on: HT29 colon
IGROV1 ovarian = tested on: IGROV1 ovarian
K-562 leukemia = tested on: K-562 leukemia
KM12 colon = tested on: KM12 colon
M14 melanoma = tested on: M14 melanoma
MALME-3M melanoma = tested on: MALME-3M melanoma
MCF7 breast = tested on: MCF7 breast
MDA-MB-231 breast = tested on: MDA-MB-231 breast
MDA-MB-435 = tested on: MDA-MB-435
MDA-N = tested on: MDA-N
MOLT-4 leukemia = tested on: MOLT-4 leukemia
NCI-H23 lung = tested on: NCI-H23 lung
NCI-H460 lung = tested on: NCI-H460 lung
NCI-H522 lung = tested on: NCI-H522 lung
NCI/ADR-RES ovarian = tested on: NCI/ADR-RES ovarian
OVCAR-3 ovarian = tested on: OVCAR-3 ovarian
OVCAR-4 ovarian = tested on: OVCAR-4 ovarian
OVCAR-5 ovarian = tested on: OVCAR-5 ovarian
OVCAR-8 ovarian = tested on: OVCAR-8 ovarian
PC-3 prostate = tested on: PC-3 prostate
RPMI-8226 leukemia = tested on: RPMI-8226 leukemia
SF-268 CNS = tested on: SF-268 CNS
SF-295 CNS = tested on: SF-295 CNS
SF-539 CNS = tested on: SF-539 CNS
SK-MEL-2 melanoma = tested on: SK-MEL-2 melanoma
SK-MEL-28 melanoma = tested on: SK-MEL-28 melanoma
SK-MEL-5 melanoma = tested on: SK-MEL-5 melanoma
SK-OV-3 ovarian = tested on: SK-OV-3 ovarian
SN12C renal = tested on: SN12C renal
SNB-19 CNS = tested on: SNB-19 CNS
SNB-75 CNS = tested on: SNB-75 CNS
SW-620 colon = tested on: SW-620 colon
T-47D breast = tested on: T-47D breast
TK-10 renal = tested on: TK-10 renal
U251 CNS = tested on: U251 CNS
UACC-257 melanoma = tested on: UACC-257 melanoma
UACC-62 melanoma = tested on: UACC-62 melanoma

Measured: TGI

O=C(/C=C(\S/C=C(/c1ccccc1)N1CCn2c(C(=O)c3ccccc3)c(C(=O)c3ccccc3)c(C(=O)c3ccccc3)c21)C(=O)c1ccccc1)c1ccccc1
> 10 µM: all assays above
